Laboratory results published in patent publication US10899747B2, “Biaryl piperidine amide compounds and methods of use thereof” (Athenex, Inc., priority 2017, dated 2021).

Each compound was assayed on IL-2 (assay: PHA-IL2 (cell activation and cytokine analysis)). Conditions: 50% inhibition concentration class.
Format: cell-based
Procedure, shortened: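 Cells were seeded in 96-well plates at 1.0-2.0×10^6 cells/ml in 150 ul of RPMI containing 0.5% fetal calf serum. Test compounds, at up to ≤20 uM, were preincubated with the cells for 30 minutes, then phytohemagglutinin (PHA) was added and cultures were stimulated for 24-48 hours at 37 degrees C./5% CO2. Supernatant IL-2 was then quantified by standard ELISA.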

SMILES | IC50 [µM]
O=C(COc1ccccc1-c1ccccc1)N1CCC(CCc2ccc(O)cc2)CC1 [Compound 100] | < 1
COC(=O)c1ccc(CCC2CCN(C(=O)COc3ccccc3-c3ccccc3)CC2)cc1 [Compound 101] | < 1
O=C(COc1ccccc1-c1ccccc1)N1CCC(CCc2ccc3c(c2)OCO3)CC1 [Compound 105] | < 1
O=C(/C=C/c1cc2c(cc1-c1ccccc1)OCO2)N1CCC(CCc2ccc(O)cc2)CC1 [Compound 111] | 1 to 10
O=C(COc1ccccc1-c1ccccc1)N1CCC(CCc2ccc3c(c2)OCCO3)CC1 [Compound 114] | < 1
O=C(COc1ccccc1-c1ccccc1)N1CCC(CCc2ccccc2)CC1 [Compound 118] | 1 to 10
O=C(COc1ccccc1-c1ccccc1)N1CCC(CCc2cc(F)c(O)c(F)c2)CC1 [Compound 124] | < 1
COc1ccc(CCC2CCN(C(=O)COc3cccnc3-c3ccccc3)CC2)cc1OC [Compound 141] | 1 to 10
CC(C)NC(=O)c1ccc(CCC2CCN(C(=O)COc3ccccc3-c3ccccc3)CC2)cc1 [Compound 148] | 1 to 10
O=C(COc1ccccc1-c1ccccc1O)N1CCC(CCc2ccc3c(c2)OCO3)CC1 [Compound 169] | < 1
CC(C)Oc1ccc(CCC2CCN(C(=O)COc3ccccc3-c3ccc(C#N)cc3)CC2)cc1 [Compound 430] | < 1
CC(C)Oc1ccccc1CCC1CCN(C(=O)COc2ccccc2-c2ccc(F)cc2O)CC1 [Compound 431] | < 1
CC(C)Oc1ccc(CCC2CCN(C(=O)COc3ccccc3-c3ccc(F)cc3O)CC2)cc1 [Compound 432] | < 1
Cc1nc2cc(-c3ccccc3OCC(=O)N3CCC(CCc4ccc(OC(C)C)cc4)CC3)ccc2[nH]1 [Compound 433] | < 1
N#Cc1ccc(-c2ccccc2OCC(=O)N2CCC(CCc3cccc(OC(F)F)c3)CC2)cc1 [Compound 434] | < 1
O=C(COc1ccccc1-c1ccc(F)cc1O)N1CCC(CCc2cccc(OC(F)F)c2)CC1 [Compound 435] | < 1
N#Cc1ccc(-c2cc(C#N)ccc2OCC(=O)N2CCC(CCc3cccc(OC(F)F)c3)CC2)cc1 [Compound 436] | < 1
N#Cc1ccc(OCC(=O)N2CCC(CCc3cccc(OC(F)F)c3)CC2)c(-c2ccc(F)cc2O)c1 [Compound 437] | < 1
CC(C)Oc1cccc(CCC2CCN(C(=O)COc3ccccc3-c3cc(C#N)ccc3OCc3ccccc3)CC2)c1 [Compound 440] | < 1
CC(C)Oc1cccc(CCC2CCN(C(=O)COc3ccccc3-c3cc(C#N)ccc3O)CC2)c1 [Compound 441] | < 1
CC(C)Oc1cccc(CCC2CCN(C(=O)COc3ccccc3-c3ccc(C#N)cc3OCc3ccccc3)CC2)c1 [Compound 442] | < 1
CC(C)Oc1cccc(CCC2CCN(C(=O)COc3ccccc3-c3ccc(C#N)cc3O)CC2)c1 [Compound 443] | < 1

The compounds below were run on NFAT (assay: TCR-NFAT (luciferase-based reporter assay)). Conditions: Homo sapiens; 50% inhibition concentration class.
Format: cell-based
Method: Jurkat T cells are transiently transfected with a DNA plasmid encoding Firefly luciferase under the transcriptional control of an appropriate regulatory element that may include multimerized NFAT, AP-1, NFκB, or CREB binding sites. Cells are co-transfected with a DNA plasmid encoding Renilla luciferase under the transcriptional control of a constitutive regulatory element (e.g., HSV-TK promoter). 24 hours following transfection, cells are collected and re-seeded in 96-well plates at a final density of 1.0×10^6 cells/ml in 150 ul assay medium. Test compounds may be included at a final concentration of ≤20 uM and generally pre-incubated with cells for 30 minutes prior to stimulation. An appropriate stimulus is added, including but not limited to, a) phorbol myristate acetate (PMA) and ionomycin, or b) stimulatory antibodies to the TCR complex (e.g., anti-CD3ε) and CD28. Cell cultures are stimulated for 4-6 hours in a humidified incubator (37 degrees C./5% CO2). Cells are than lysed and the level of Firefly luciferase and Renilla Luciferase activity is determined using a standard assay (e.g., Promega's Dual Luciferase Reporter Assay System) and plate-reading luminometer. The ratio obtained by dividing activation induced Firefly luciferase activity by the constitutive Renilla luciferase activity is calculated and used as a quantitative measurement of cell activation.
Jurkat T cells were transiently transfected with a DNA plasmid encoding Firefly luciferase under the transcriptional control of an appropriate regulatory element that may include multimerized NFAT, AP-1, NFκB, or CREB binding sites. Cells were co-transfected with a DNA plasmid encoding Renilla luciferase under the transcriptional control of a constitutive regulatory element (e.g., HSV-TK promoter). 24 hours following transfection, cells were collected and re-seeded in 96-well plates at a final density of 1.0×10^6 cells/ml in 150 ul assay medium. Compound 413 was included at a final concentration of ≤20 uM and pre-incubated with cells for 30 minutes prior to stimulation. Mitogens PMA and ionomycin were added. Cell cultures were stimulated for 4-6 hours in a humidified incubator (37° C./5% CO2). Cells were then lysed and the level of Firefly luciferase and Renilla Luciferase activity was determined using a standard assay (e.g., Promega's Dual Luciferase Reporter Assay System) and plate-reading luminometer. The ratio obtained by dividing activation induced Firefly luciferase activity by the constitutive Renilla luciferase activity was calculated and used as a quantitative measurement of cell activation.

SMILES | IC50 [µM]
O=C(COc1ccccc1-c1ccccc1)N1CCC(CCc2ccc(O)cc2)CC1 [Compound 100] | 1 to 10
COC(=O)c1ccc(CCC2CCN(C(=O)COc3ccccc3-c3ccccc3)CC2)cc1 [Compound 101] | < 1
O=C(NCc1ccccn1)c1ccc(CCC2CCN(C(=O)COc3ccccc3-c3ccccc3)CC2)cc1 [Compound 102] | 1 to 10
O=C(NCc1cccnc1)c1ccc(CCC2CCN(C(=O)COc3ccccc3-c3ccccc3)CC2)cc1 [Compound 103] | 1 to 10
O=C(NCc1ccncc1)c1ccc(CCC2CCN(C(=O)COc3ccccc3-c3ccccc3)CC2)cc1 [Compound 104] | 1 to 10
O=C(COc1ccccc1-c1ccccc1)N1CCC(CCc2ccc3c(c2)OCO3)CC1 [Compound 105] | 1 to 10
O=C(COc1ccccc1-c1ccccc1)N1CCC(CCc2cc(F)cc(F)c2)CC1 [Compound 106] | 1 to 10
O=C(COc1ccccc1-c1ccccc1)N1CCC(CCc2ccc(F)cc2)CC1 [Compound 107] | 10 to 50
COc1ccc(CCC2CCN(C(=O)COc3ccccc3-c3ccccc3)CC2)cc1 [Compound 108] | 1 to 10
COc1ccc(CCC2CCN(C(=O)COc3ccccc3-c3ccccc3)CC2)cc1OC [Compound 109] | 1 to 10
O=C(O)c1ccc(CCC2CCN(C(=O)COc3ccccc3-c3ccccc3)CC2)cc1 [Compound 110] | 10 to 50
O=C(/C=C/c1cc2c(cc1-c1ccccc1)OCO2)N1CCC(CCc2ccc(O)cc2)CC1 [Compound 111] | 1 to 10
O=C(COc1ccccc1-c1ccccc1)N1CCC(CCc2ccc(N3CCOCC3)cc2)CC1 [Compound 112] | 1 to 10
Cc1ccc(F)cc1CCC1CCN(C(=O)COc2ccccc2-c2ccccc2)CC1 [Compound 113] | 1 to 10
O=C(COc1ccccc1-c1ccccc1)N1CCC(CCc2ccc3c(c2)OCCO3)CC1 [Compound 114] | 1 to 10
O=C(COc1ccccc1-c1ccccc1)N1CCC(CCc2ccc(OC(F)(F)F)cc2)CC1 [Compound 115] | 1 to 10
Cc1cc(OC(F)(F)F)ccc1CCC1CCN(C(=O)COc2ccccc2-c2ccccc2)CC1 [Compound 116] | 10 to 50
O=C(COc1ccccc1-c1ccccc1)N1CCC(CCc2ccccc2)CC1 [Compound 118] | 10 to 50
COc1ccc(CCC2CCN(C(=O)COc3ccccc3-c3ccccc3)CC2)c(OC)c1 [Compound 119] | 1 to 10
O=C(COc1ccccc1-c1ccccc1)N1CCC(CCc2ccc(F)c(C(F)(F)F)c2)CC1 [Compound 121] | 10 to 50
O=C(COc1ccccc1-c1ccccc1)N1CCC(CCc2ccccc2OC(F)(F)F)CC1 [Compound 122] | 10 to 50
O=C(COc1ccccc1-c1ccccc1)N1CCC(CCc2cc(F)ccc2F)CC1 [Compound 123] | 10 to 50
O=C(COc1ccccc1-c1ccccc1)N1CCC(CCc2cc(F)c(O)c(F)c2)CC1 [Compound 124] | 10 to 50
COc1ccc(CO)cc1CCC1CCN(C(=O)COc2ccccc2-c2ccccc2)CC1 [Compound 125] | 10 to 50
O=C(COc1ccccc1-c1ccccc1)N1CCC(CCc2cccc(C(F)(F)F)c2)CC1 [Compound 127] | 10 to 50
COc1cccc(CCC2CCN(C(=O)COc3ccccc3-c3ccccc3)CC2)c1 [Compound 128] | 10 to 50

SMILES | IC50 [µM]
CCOc1ccc(CCC2CCN(C(=O)COc3ccccc3-c3ccccc3)CC2)cc1 [Compound 129] | 10 to 50
O=C(COc1ccccc1-c1ccccc1)N1CCC(CCc2cccc(F)c2)CC1 [Compound 130] | 10 to 50
O=C(COc1ccccc1-c1ccccc1)N1CCC(CCc2cccc(CO)c2)CC1 [Compound 131] | 10 to 50
O=C(CCc1cc2c(cc1-c1ccccc1)OCO2)N1CCC(CCc2ccc(O)cc2)CC1 [Compound 132] | 10 to 50
COc1ccc(CCC2CCN(C(=O)COc3c(F)cccc3-c3ccccc3)CC2)cc1OC [Compound 133] | 10 to 50
COc1ccc(CCC2CCN(C(=O)COc3c(F)cccc3-c3ccccc3)CC2)cc1 [Compound 134] | 10 to 50
O=C(COc1c(F)cccc1-c1ccccc1)N1CCC(CCc2cc(F)cc(F)c2)CC1 [Compound 135] | 10 to 50
O=C(COc1c(F)cccc1-c1ccccc1)N1CCC(CCc2ccc(F)cc2)CC1 [Compound 136] | 10 to 50
O=C(COc1cc(F)c(F)cc1-c1ccccc1)N1CCC(CCc2ccc(F)cc2)CC1 [Compound 137] | 10 to 50
COc1ccc(CCC2CCN(C(=O)COc3c(C)cccc3-c3ccccc3)CC2)cc1OC [Compound 138] | 1 to 10
COc1ccc(CCC2CCN(C(=O)COc3c(C)cccc3-c3ccccc3)CC2)cc1 [Compound 139] | 10 to 50
Cc1cccc(-c2ccccc2)c1OCC(=O)N1CCC(CCc2ccc(F)cc2)CC1 [Compound 140] | 10 to 50
COc1ccc(CCC2CCN(C(=O)COc3cccnc3-c3ccccc3)CC2)cc1OC [Compound 141] | 10 to 50
COc1ccc(CCC2CCN(C(=O)COc3cc(F)c(F)cc3-c3ccccc3)CC2)cc1OC [Compound 142] | 1 to 10
O=C(COc1cc(F)c(F)cc1-c1ccccc1)N1CCC(CCc2cc(F)cc(F)c2)CC1 [Compound 143] | 10 to 50
COc1ccc(CCC2CCN(C(=O)C(C)Oc3ccccc3-c3ccccc3)CC2)cc1OC (stereo not shown) [Compound 144] | 1 to 10
CCCC(Oc1ccccc1-c1ccccc1)C(=O)N1CCC(CCc2ccc(OC)c(OC)c2)CC1 (stereo not shown) [Compound 145] | 1 to 10
COCc1ccc(CCC2CCN(C(=O)COc3ccccc3-c3ccccc3)CC2)cc1 [Compound 146] | 1 to 10
CN(C)C(=O)c1ccc(CCC2CCN(C(=O)COc3ccccc3-c3ccccc3)CC2)cc1 [Compound 147] | 1 to 10
CC(C)NC(=O)c1ccc(CCC2CCN(C(=O)COc3ccccc3-c3ccccc3)CC2)cc1 [Compound 148] | 1 to 10
CC(C)(C)NC(=O)c1ccc(CCC2CCN(C(=O)COc3ccccc3-c3ccccc3)CC2)cc1 [Compound 149] | 1 to 10
O=C(COc1cc(OC(F)(F)F)ccc1-c1ccccc1)N1CCC(CCc2ccc3c(c2)OCO3)CC1 [Compound 150] | 10 to 50
O=C(COc1cc(F)ccc1-c1ccccc1)N1CCC(CCc2ccc3c(c2)OCO3)CC1 [Compound 151] | 10 to 50
O=C(COc1ccc(F)cc1-c1ccccc1)N1CCC(CCc2ccc3c(c2)OCO3)CC1 [Compound 152] | 10 to 50
O=C(COc1ccccc1-c1ccccc1O)N1CCC(CCc2ccc3c(c2)OCO3)CC1 [Compound 169] | < 1
